Reference: ChEMBL document CHEMBL3585308, “Discovery and Modification of in Vivo Active Nrf2 Activators with 1,2,4-Oxadiazole Core: Hits Identification and Structure-Activity Relationship Study” (J Med Chem, 2015)
Activity calls are given as the source filed them. No cut-off for these calls is given here.

How the values were obtained:
Mus musculus [1] = experiment: In vivo activation of Nrf2 in LPS-stimulated C57BL/6 mouse lung at 10 mg/kg/day pretreated for 48 hrs followed by LPS challenge measured after 5 hrs by DAPI staining-based laser scanning confocal microscopic analysis; type: functional, organism-based
Mus musculus [2] = experiment: Toxicity in C57BL/6 mouse assessed as effect on body weight at 10 mg/kg/day measured after 3 days; type: organism-based; conditions: in vivo, 72 h
Mus musculus [3] = experiment: Antiinflammatory activity in C57BL/6 mouse assessed as reduction of LPS-induced TNF-alpha level in serum at 10 mg/kg/day pretreated for 48 hrs followed by LPS challenge measured after 5 hrs by ELISA; type: functional, organism-based
Mus musculus [4] = experiment: Antiinflammatory activity in C57BL/6 mouse assessed as reduction of LPS-induced IFN-gamma level in serum at 10 mg/kg/day pretreated for 48 hrs followed by LPS challenge measured after 5 hrs by ELISA; type: functional, organism-based
Mus musculus [5] = experiment: Antiinflammatory activity in C57BL/6 mouse assessed as reduction of LPS-induced IL-6 level in serum at 10 mg/kg/day pretreated for 48 hrs followed by LPS challenge measured after 5 hrs by ELISA; type: functional, organism-based
Mus musculus [6] = experiment: Antiinflammatory activity in C57BL/6 mouse assessed as reduction of LPS-induced IL-12 level in serum at 10 mg/kg/day pretreated for 48 hrs followed by LPS challenge measured after 5 hrs by ELISA; type: functional, organism-based
Mus musculus [7] = experiment: Antiinflammatory activity in C57BL/6 mouse assessed as reduction of LPS-induced IL-17 level in serum at 10 mg/kg/day pretreated for 48 hrs followed by LPS challenge measured after 5 hrs by ELISA; type: functional, organism-based
Mus musculus [8] = experiment: Antiinflammatory activity in C57BL/6 mouse assessed as prevention of LPS-induced morphological changes in lung at 10 mg/kg/day pretreated for 48 hrs followed by LPS challenge measured after 5 hrs; type: functional, organism-based
Mus musculus [9] = experiment: Antiinflammatory activity in C57BL/6 mouse assessed as suppression of LPS-induced IL-6 expression in lung at 10 mg/kg/day pretreated for 48 hrs followed by LPS challenge measured after 5 hrs by immunohistochemical analysis; type: functional, organism-based

## C[C@@H]1C[C@H]2[C@@H]3CCC4=CC(=O)C=C[C@]4(C)[C@@]3(F)[C@@H](O)C[C@]2(C)[C@@]1(O)C(=O)CO [DEXAMETHASONE]
Mus musculus [1]
  Activity: Active
Mus musculus [2]
  Activity: Non-toxic
Mus musculus [3]
  Activity: Active
Mus musculus [4]
  Activity: Active
Mus musculus [5]
  Activity: Active
Mus musculus [6]
  Activity: Active
Mus musculus [7]
  Activity: Active
Mus musculus [8]
  Activity: Active
Mus musculus [9]
  Activity: Active
